Test results published in patent US4594340A, “25,26-dehydro-1α,24R-dihydroxycholecalciferol and 25,26-dehydro-1α,24S-dihydroxycholecalciferol and the epimeric mixture” (Hoffmann-La Roche Inc., priority 1984, dated 1986).

Experiments:
[1] = Antirachitogenic increase in tibia ash in chicks on vitamin D-deficient diet; format: in vivo, chick (White Leghorn cockerels); settings: 27 ng, orally, 21 consecutive days
Method: **Oneday-old White Leghorn cockerels were placed on a vitamin Ddeficient
diet which contained 1% calcium and 0.7% phosphorus and were housed under
ultravioletfree lighting (General Electric F40G0 gold fluorescent lights)
The test compound was dissolved in propylene glycol and administered
orally in a volume of 0.2 ml/day for 21 consecutive days. Controls were
treated with vehicle alone. Chicks were autopsied on the day after the […]

HL-60 cells = assay: Differentiation of HL-60 cells by nitroblue tetrazolium (NBT) reduction; format: cell-based, human (patient); settings: Homo sapiens, 96 h; HL-60 cells, NBT test; read-out: HL-60 Test Differentiation NBT Test ED50
Method: Cultures of HL-60 cells were established in the absence (control) or presence of various concentrations of the test compound. […] Proliferation was assessed by directly enumerating the increased number of tumor cells resulting from incubation. Viability was determined by dye exclusion technique to learn whether any of the compounds were lethal to cultured HL-60 cells. Cellular differentiation was evaluated by determining the number of cells which had acquired the enzymes necessary to support a respiratory burst and the functional ability to phagocytose (bind/internalize) particulate material from their environment; both activities being characteristic of mature macrophages and granulocytes,
Experimental compounds were dissolved in sufficient ethanol to yield stock solutions of 1×10^-2 molar. Reduced lighting was employed when working with compounds and stock solutions were stored in the dark at -20° in an argon atmosphere. Compounds were diluted with tissue culture medium and added to flasks containing HL-60 cells to achieve the final concentrations described in each experiment.
The promyelocytic (HL-60) tumor cell line was derived from a patient with acute promyelocytic leukemia. HL-60 cells were maintained in liquid culture by serial weekly passage in tissue culture medium. In any experiment, three replicate flasks were incubated without compound (control) or in the presence of varying concentrations of compound. […]
Quantitation of differentiated cells was done by the biochemical method of nitroblue tetrazolium (NBT) reduction. Sufficient cells were pooled from replicate cultures, centrifuged at 220×g, washed once with serum-free tissue culture medium, and resuspended to 1×10^6 cells per ml in Ca^++ --Mg^++ -deficient phosphate buffered saline (prepared by supplementing Ca^++ --Mg^++ -free phosphate buffered saline (PBS) to 10% v/v with heat-inactivated fetal bovine serum). Nitroblue tetrazolium was dissolved at 1 mg per ml in Ca^++ --Mg^++ -deficient PBS with gentle heating and mixing. Tetradecanoyl phorbol acetate (TPA) was dissolved at 1 mg per ml in ethanol and stored at -20° C. Just prior to use, a working solution of TPA was prepared by diluting the stock concentration 100-fold with Ca^++ --Mg^++ -deficient PBS. The test was done in 12×75 mm tubes by adding 0.5 ml Ca^++ --Mg^++ -deficient PBS, 1.0 ml of HL-60 cells, 0.5 ml of NBT solution, and 0.02 ml of the working TPA solution. After mixing, the tubes were incubated in a 37° water bath for 25 minutes then transferred to ice. Undifferentiated and differentiated cells present in any sample were determined microscopically by surveying 200-400 cells per sample or by cytofluorograph by surveying greater than 30,000 cells. Cells without pigmented granules (clear cells) were judged to be undifferentiated while those containing greater than 3 blue-black formazan granules were scored as differentiated. […] Results are expressed as the percentage of differentiated cells present in any sample as calculated according to the formula: [formula]

C=C1/C(=C\C=C2/CCC[C@]3(C)[C@@H]([C@H](C)CCCC(C)(C)O)CC[C@@H]23)C[C@@H](O)C[C@@H]1O [1α,25-Dihydroxycholecalciferol, reference compound]
Antirachitogenic Increase in Tibia Ash in Chicks [1]: 61% | EC50 (HL-60 cells): 0.012 µM
